Data on 19 molecules can be found in patent publication US20110071146A1, “17BetaHSD Type 5 Inhibitor” (ASTELLAS PHARMA INC., priority 2006, published 2011).

Like-named read-outs stand apart in the source and are kept apart here. Where only a bound is given, the exact number is not on record here.

Data set [1] concerns the target T1, human 17βHSD type 5 (Homo sapiens, UniProt P42330).
T1 construct: A full-length cDNA encoding human 17βHSD type 5 used in the pharmacological test; made in house; host or cells: Escherichia coli BL21
T1 sequence (P42330 1-323): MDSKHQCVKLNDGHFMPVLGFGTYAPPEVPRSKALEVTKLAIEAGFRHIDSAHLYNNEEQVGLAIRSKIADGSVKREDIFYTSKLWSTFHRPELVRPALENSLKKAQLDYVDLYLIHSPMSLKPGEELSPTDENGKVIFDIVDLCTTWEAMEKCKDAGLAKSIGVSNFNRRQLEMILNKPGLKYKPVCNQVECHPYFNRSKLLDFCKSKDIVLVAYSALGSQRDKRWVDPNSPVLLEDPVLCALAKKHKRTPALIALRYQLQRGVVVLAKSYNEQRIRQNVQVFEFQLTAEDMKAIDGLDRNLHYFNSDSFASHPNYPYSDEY
The data set can be described thus: Measurement of enzyme activity of human 17βHSD type 5 (testosterone production from androstenedione, DELFIA). Format: biochemical. The conditions noted are these: for IC50: purified human 17βHSD type 5, androstenedione 300 nM, NADPH 200 μM, pH 6.0, room temperature 2 hours. The source says:
(§1) An excellent selective inhibitory activity against human 17βHSD type 5 of the compounds of the present invention was confirmed by a test method described below. Further, the test may be performed by referring to the details of test procedure described in Maniatis, T. et al., Molecular Cloning—A Laboratory Manual Cold Spring Harbor Laboratory, NY and the like (1982). In addition, a gene encoding human 17βHSD type5 and type3 described in 1 and 2 below, and human 17βHSD type5 and type3 may be obtained by the method described in Mol. Endocrinol, 1971-1984, 11(13) (1997).
A full-length cDNA encoding human 17βHSD type 5 used in the pharmacological test of the present invention was obtained by the PCR method using a cDNA derived from a human lung cancer-derived cell line, A549 cells as a template. The nucleotide sequence of the obtained cDNA was analyzed by the dideoxyterminator method, and the clone matched with the known human 17βHSD type 5 sequence (GenBank accession No. NM_003739) was selected. Escherichia coli BL21 was transformed with a plasmid containing the cDNA, cultured on a large scale, and the proteins were purified by using GSTrapFF column (Amersham) and PreScissionProtease (Amersham). The purification was performed in accordance with the instructions attached to the GSTrapFF column.
(§2) Enzyme activity was measured referring to Trevor M. Penning, et al., Biochem. J., 351, 67-77, (2000). Specifically, using a 100 mM potassium phosphate buffer (pH 6.0), (1) the enzyme purified in above 1 at a final concentration of 10 μg/mL, (2) androstenedione at a final concentration of 300 nM, (3) NADPH at a final concentration of 200 μM and (4) a test substance at a final concentration of 3 μM were mixed to react at room temperature for 2 hours, and then the amount of testosterone produced was measured using DELFIA (registered trademark) Testosterone Reagents R050-201 (PerkinElmer). The measurement was performed in accordance with the attached instructions. The amount of reduction of testosterone production in the presence of the compound was obtained as a relative value with respect to the amount of testosterone in the absence of the enzyme set at 0% and the amount of testosterone produced in the absence of the compound set at 100%. Then, IC50 values were calculated by the Logistic regression method.

Data set [2] concerns the target T2, human 17βHSD type 3 (Homo sapiens, UniProt P37058).
T2 construct: A full-length cDNA encoding human 17βHSD type 3 used in the pharmacological test; made in house; host or cells: human fetus kidney-derived 293 cells (transfected; supernatant of disrupted cells, not purified)
T2 sequence (P37058 1-310): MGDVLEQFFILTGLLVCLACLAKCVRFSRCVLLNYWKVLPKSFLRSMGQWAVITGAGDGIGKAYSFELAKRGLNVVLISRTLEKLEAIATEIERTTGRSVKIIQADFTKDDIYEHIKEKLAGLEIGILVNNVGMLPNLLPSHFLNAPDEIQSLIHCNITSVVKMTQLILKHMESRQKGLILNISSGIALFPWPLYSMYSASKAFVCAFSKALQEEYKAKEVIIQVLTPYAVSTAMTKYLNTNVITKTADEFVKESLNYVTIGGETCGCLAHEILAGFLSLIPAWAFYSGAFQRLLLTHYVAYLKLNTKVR
The data set can be described thus: Measurement of enzyme activity of human 17βHSD type 3 (testosterone production from androstenedione, DELFIA). The note with it: human 17βHSD type 3 (293 cell supernatant as enzyme source). Format: biochemical.
Description: as §1
A full-length cDNA encoding human 17βHSD type 3 used in the pharmacological test of the present invention was obtained by the PCR method using a cDNA derived from human testis as a template. The nucleotide sequence of the obtained cDNA was analyzed by the dideoxyterminator method, and the clone matched with the known human 17βHSD type 3 sequence (GenBank accession No. BC034281) was selected. Subsequently, a human fetus kidney-derived cell line, 293 cells was transformed with a plasmid containing the cDNA, and the cells were collected 24 hours later. The collected cells were then disrupted in a phosphate buffer solution containing 5% glycerol (500 μL per 100 mm-dish of a phosphate buffer solution (pH 7.4, 200 mM) containing 5% glycerol) and centrifuged (16000 rpm, 5 min, 4° C.), and the supernatant was used as an enzyme source.
as §2

Data set [3] in a line: Measurement of concentrations of human 17βHSD type 5 inhibitor compounds in mouse tissues (plasma, prostate) after oral administration. In kind it is in vivo. The note with it: male ICR mice, 2 hours after administration. On the procedure:
The concentrations in plasma and in prostate were measured after oral administration of a test substance. Male 8 to 15-week old ICR mice were used, and a solution or suspension obtained by adding 1 N NaOH solution and water in an equivalent amount to a test substance and stirring was used as an administration solution. The administration solution was administered orally once to mice, and after 2 hours, blood and a prostate were collected under ether anesthesia. The prostate was frozen and stored at −80° C. until measurement. The blood was centrifuged (3000 rpm, 15 min, 4° C.) after the addition of a minor amount of heparin, and the upper layer was collected as plasma and frozen and stored at −80° C. until measurement. 0.1 mL of the plasma was subjected to protein degeneration with 0.1 mL of acetonitrile and then centrifuged (15000 rpm, 7 min, 4° C.) to remove proteins and the supernatant thus obtained was used as an HPLC sample. The prostate was homogenized in a phosphate buffer solution (200 mM, pH 7.4, 0.5 mL), and then the whole volume was added to 3 mL of t-butyl methyl ether to perform extraction. The solvent was evaporated in a stream of nitrogen (15 min, 45° C.). The residue was resuspended in a Tris buffer solution (12.5 mM, pH 7.4, 0.3 mL) containing 2% BSA, and an equal volume of acetonitrile (0.3 mL) was added. Protein was removed as in the case of plasma and the supernatant was used as an HPLC measurement sample. Measurement was performed by an ordinary method using liquid chromatography (HPLC).
Column: STR ODS-II (registered trademark), particle size: 5 μm, inner diameter: 4.6 mm, length: 150 mm, joint type: Waters Mobile phase: 20 mM ammonium acetate:acetonitrile=7:3 or 17 mM ammonium acetate:acetonitrile=6:4 Flow rate: 1 mL/min Column temperature: 40° C. Injection volume: 50 μL

The subject of data set [4] is 5α-reductase. The note with it: patients with BPH; cited from earlier work.
Where [5] appears, read: plasma, oral single dose 100 mg/kg, read-out: Conc (plasma).
The mark [6] stands for this setting: prostate, oral single dose 100 mg/kg, read-out: Conc (prostate).
Setting [7] is: plasma, oral single dose 300 mg/kg, read-out: Conc (plasma).
Setting [8] is: prostate, oral single dose 300 mg/kg, read-out: Conc (prostate).

The IC50 is the midpoint of a concentration-inhibition curve. Turning to `COc1ccc(S(=O)(=O)n2cc(C(=O)O)c3ccccc32)cc1` [Example 133, 1-[(4-methoxyphenyl)sulfonyl]-1H-indole-3-carboxylic acid], the results for the IC50 in data set [1] and in data set [2] were 3100 nM and above 10000 nM, respectively.

Turning to `O=C(O)c1cn(S(=O)(=O)c2ccccc2)c2c(F)cccc12` [Example 187], the IC50 in data set [1] is 2200 nM; in data set [2] it was above 10000 nM. Moreover, the concentration at 2 h in data set [3] (setting [5]) stood at 69.7 µM; in data set [3] (setting [6]) it was 12.2 µM.

Take `CC(C)(C)NC(=O)[C@H]1CC[C@H]2[C@@H]3CC[C@H]4NC(=O)C=C[C@]4(C)[C@H]3CC[C@]12C` [finasteride]: in data set [4], the “concentration of DHT in the prostate after administration, relative to the concentration before the administration” value is “about 20%” and the “increase of the concentration of testosterone in the prostate” value is 4 fold.

As for `O=C(O)c1c(Cl)n(Cc2ccc(Cl)cc2Cl)c2ccccc12` [(2), reference compound], the concentration for half-maximal inhibition (IC50) in data set [1] was above 10000 nM. For the same molecule, the “17βHSD type 5 inhibitory activity (in words)” value in data set [1] (summary of Table 51) is reported as “scarcely exhibited 17βHSD type 5 inhibitory activity”.

Take `CC(C)c1ccc(S(=O)(=O)n2cc(C(=O)O)c3cccc(Cl)c32)cc1` [Example 193]: the IC50 is 130 nM in data set [1] and above 10000 nM in data set [2].

In the case of `O=C(O)c1cn(S(=O)(=O)c2ccc(Br)cc2)c2c(Cl)cccc12` [Example 192], the 50% inhibitory concentration (IC50) in data set [1] was 69 nM; in data set [2] it was above 10000 nM. Also, the concentration at 2 h in data set [3] (setting [5]) came to 57.3 µM; in data set [3] (setting [7]), 126 µM; in data set [3] (setting [6]) it was 9.4 µM; in data set [3] (setting [8]), 24.9 µM.

Consider `O=C(O)c1cn(S(=O)(=O)c2ccccc2)c2ccc(F)cc12` [Example 175], for which the IC50 turned out to be 120 nM in data set [1] and 8900 nM in data set [2]. Further, the concentration at 2 h stood at 83.8 µM in data set [3] (setting [5]) and 8.6 µM in data set [3] (setting [6]).

Take `O=C(O)c1cn(S(=O)(=O)c2ccccc2)c2c(Cl)cccc12` [Example 191]: the 50% inhibitory concentration (IC50) in data set [1] was 300 nM; in data set [2] it was above 10000 nM.

On to `O=C(O)c1cn(S(=O)(=O)c2ccccc2)c2ccccc12` [Example 1, 1-(phenylsulfonyl)-1H-indole-3-carboxylic acid], for which the concentration at 2 h in data set [3] (plasma, oral single dose 30 mg/kg, read-out: Conc (plasma)) is 17 µM; in data set [3] (setting [5]), 57.4 µM; in data set [3] (setting [7]), 145 µM; in data set [3] (prostate, oral single dose 30 mg/kg, read-out: Conc (prostate)), 5.3 µM; in data set [3] (setting [6]), 13.3 µM; in data set [3] (setting [8]), 47.4 µM.

In the case of `O=C(O)c1cn(S(=O)(=O)c2ccc(Br)cc2)c2ccccc12` [Example 144], the values for the half-inhibitory concentration (IC50) in data set [1] and in data set [2] were 90 nM and above 10000 nM, respectively. In addition, the concentration at 2 h was determined as 38.5 µM in data set [3] (setting [5]), 79.1 µM in data set [3] (setting [7]), 7.2 µM in data set [3] (setting [6]) and 24.8 µM in data set [3] (setting [8]).

On to `CCc1cccc2c(C(=O)O)cn(S(=O)(=O)c3ccccc3)c12` [Example 168], for which the IC50 in data set [1] is 85 nM; in data set [2] it was above 10000 nM.

Consider `Cc1ccc(S(=O)(=O)n2cc(C(=O)O)c3ccccc32)cc1` [Example 138], for which the half-inhibitory concentration (IC50) in data set [1] was 330 nM; in data set [2] it was above 10000 nM.

`O=C(O)c1c(Cl)n(Cc2ccc(Cl)cc2)c2ccccc12` [(1), reference compound] registered a concentration for half-maximal inhibition (IC50) in data set [1] above 10000 nM.

With `Cc1cc(Br)ccc1S(=O)(=O)n1cc(C(=O)O)c2cccc(Cl)c21` [Example 194], the IC50 was 190 nM in data set [1] and 6200 nM in data set [2].

With `O=C(O)c1cn(S(=O)(=O)c2ccc(Br)cc2)c2c1CCCC2` [Example 208], the 50% inhibitory concentration (IC50) in data set [1] is 2200 nM; in data set [2] it was above 10000 nM.

As for `O=C(O)c1cn(S(=O)(=O)c2ccc(Br)cc2)c2cc3c(cc12)OCO3` [Example 203], the results for the IC50 in data set [1] and in data set [2] were 2000 nM and above 10000 nM, respectively.

Consider `O=C(O)c1cn(S(=O)(=O)c2ccccc2)c2ccc(Cl)cc12` [Example 190], for which the figures for the 50% inhibitory concentration (IC50) in data set [1] and in data set [2] were 690 nM and above 10000 nM, respectively. The figures for the concentration at 2 h in data set [3] (setting [7]) and in data set [3] (setting [8]) were 226 µM and 37.4 µM, respectively.

For `Cc1ccc2c(c1)c(C(=O)O)cn2S(=O)(=O)c1ccccc1` [Example 163], the half-maximal inhibitory concentration (IC50) in data set [1] is 220 nM; in data set [2] it was above 10000 nM. In addition, the concentration at 2 h in data set [3] (setting [5]) worked out at 88.8 µM; in data set [3] (setting [6]) it was 19.1 µM.

Take `COc1cccc2c1c(C(=O)O)cn2S(=O)(=O)c1ccccc1` [Example 155]: the results for the IC50 in data set [1] and in data set [2] were 5500 nM and above 10000 nM, respectively. In addition, the concentration at 2 h in data set [3] (setting [5]) was 88.4 µM; in data set [3] (setting [6]), 23 µM.
